{"source": "patent US20240293416A1", "about": "“TREATMENT OF LIVER DISORDERS WITH A THR-ß AGONIST” (Terns Pharmaceuticals, Inc., priority 2021, published 2024)", "tested_on": "biopsy-confirmed DIO-NASH mice", "assay": "DIO-GAN NASH mice: body weight, organ weight, body composition", "assay_type": "in vivo, C57BL/6JRj mice", "conditions": "doses per Table 16", "from_the_text": "C57BL/6JRj male mice (n=138) were fed the Gubra Amylin NASH (GAN) diet (40% fat, 22% fructose, 2% cholesterol [D09100310, Research Diets]) or lean chow diet for 35 weeks before treatment start. Prior to treatment all animals underwent liver biopsy for histological confirmation (steatosis score ≥2 and fibrosis stage ≥1) and stratification using the nonalcoholic fatty liver disease (NAFLD) activity scoring (NAS) and fibrosis staging system. The diet-induced obese mice on GAN diet (DIO-GAN) were randomized to 8 treatment groups (Table 16) based on percent-area of picrosirius red (PSR) staining. […] Vehicle-dosed lean chow-fed controls served as healthy controls (n=10). Mice were maintained on their respective diets (GAN or lean chow) for the duration of the study. Within-subject comparisons (pre-vs. post-treatment) were performed for liver biopsy histopathological scores. Terminal quantitative endpoints included plasma/liver biochemistry, liver histomorphometry, and liver transcriptomic analysis by RNAseq.\nThe diet-induced obese, Gubra Amylin NASH model (DIO-GAN) recapitulates many of the histopathological features of human NASH (Hansen 2020). […] To induce NASH disease, C57BL/6JRj mice were maintained a on diet high in fat, cholesterol, and fructose (GAN diet) for >35 weeks. Prior to therapeutic intervention, mice were biopsied to assess NASH disease and fibrosis severity; mice with a steatosis score <2 and fibrosis stage <1 were excluded from the study. DIO-GAN mice were then randomized into 8 treatment groups (n=16 per group) based on the percent fractional area of Picrosirius red (PSR) staining of the pre-treatment biopsy as well as body fat tissue mass determined by whole body Echo-magnetic resonance imaging (EchoMRI). […] DIO-GAN mice administered vehicle by oral gavage once daily served as a control. Mice were treated for a total of 12 weeks and were maintained on GAN diet throughout the study. Lean mice (n=10), maintained on normal chow diet throughout the study served as healthy controls.\nBody composition was determined at baseline (Week-1) and Week 11 of the study by whole body EchoMRI to determine the relative levels lean and fat tissue as a percentage of body weight. Baseline levels of lean and fat tissue were well balanced across treatment groups (FIGS. 33A and 33B).", "data": [{"smiles": "Cn1cc(C(=O)O)c2ccc(C3CCC(OCc4c(-c5c(Cl)cccc5Cl)noc4C4CC4)CC3)cc21", "note": "(stereo not shown) [Compound 2]", "values": [{"measurement": "body weight at the end of study vs DIO-GAN vehicle control", "setting": "PO QD 12 weeks", "value": "significantly lower"}, {"measurement": "body weight during the study", "setting": "PO QD 12 weeks", "value": "decreased body weight"}, {"measurement": "fat tissue (% BW, EchoMRI)", "setting": "Week 11", "value": "reduced levels of fat tissue"}, {"measurement": "relative lean tissue mass (EchoMRI)", "setting": "Week 11", "value": "significant increases"}]}]}
